According to patent publication US8349366B2, “Immediate release pharmaceutical granule compositions and a continuous process for making them” (Universiteit Gent, priority 2002, dated 2013):
One block for each compound: values may come before it.

Experiments:
[1] = cited from earlier work
[2] = in vivo; cited from earlier work
[3] = capsules with granulate formulation, surfactants, cyclodextrin, Avicel PH 101 and Primojel (U.S. Pat. No. 5,646,131, example 4); cited from earlier work
[4] = Drug dissolution test of extruded granules or pellets, paddles at 100 rpm, demineralized water, room temperature; assay type: physicochemical; conditions: paddles 100 rpm
Description: The extruded granules were collected, sieved and further analysed for drug dissolution (data shown in FIGS. 1 and 2, formulations B and D). The dissolution test was performed at room temperature by using paddles rotating at 100 rpm, the dissolution medium being demineralized water.

SMILES: CC/C(=C(/CC)c1ccc(O)cc1)c1ccc(O)cc1 [diethylstilbestrol]
solubility in water (in words) [1]: virtually insoluble in water

SMILES: CS(=O)(=O)c1ccc([C@@H](O)[C@@H](CF)NC(=O)C(Cl)Cl)cc1 [florfenicol, D-(threo)-1-p-methylsulfonyl phenyl-2-dichloroacetamido-3-fluoro-l-propanol]
oral bioavailability [2]: good oral bioavailability

SMILES: CC(C)(C)c1ccc(C(O)CCCN2CCC(C(O)(c3ccccc3)c3ccccc3)CC2)cc1 (stereo not drawn) [terfenadine]
water-solubility [1]: less than 0.01 mg/ml
drug release within 45 minutes [3]: 90%

SMILES: Cn1c(=O)c2[nH]cnc2n(C)c1=O [theophylline]
water-solubility [1]: 8000 µg/mL

drug release after 30 minutes [4]: 38%
SMILES: COc1cc(Cc2cnc(N)nc2N)cc(OC)c1OC [trimethoprim, 2,4-diamino-5-(3,4,5-trimethoxy-benzyl)pyrimidine]
